The nature of data set [1]: Metabolic stability in liver microsomes (rat). The conditions noted are these: rat liver microsomes 0.5 mg/mL, compound 1 μM, NADPH, up to 30 min. Format: in vitro ADME. On the procedure:
(§1) Metabolic Stability in Liver Microsomes
(§2) Procedure: Potassium phosphate buffer (66.7 mM, pH 7.4) containing mouse or rat or dog or monkey or human liver microsomes (0.5 mg/mL) was pre-incubated separately with compound (1 μM) and positive control (verapamil, 1 μM) in a 37° C. water bath for 5 min. The reactions were initiated by adding 20 μL of 10 mM NADPH. Reactions without NADPH (0 and 30 min) were also incubated to rule out non-NADPH metabolism or chemical instability in the incubation buffer. All reactions were terminated using 200 μL of ice-cold acetonitrile containing internal standard at 0, 5, 15 and 30 min. The vials were centrifuged at 3000 rpm for 15 min. The reaction mixtures (obtained from the above studies) were extracted, processed and analyzed by LC-MS [Shimadzu SIL LC series (Kyoto, Japan) was coupled to an API-4000 Mass Spectrometer (MDS Sciex, Toronto, Canada)] to monitor the disappearance of compound.
On the technique in general: Microsomes from liver hold many membrane-bound enzymes, among them those of drug oxidation.

Data set [2] concerns the target T1, CYP2C19 (Homo sapiens, UniProt P33261).
T1 construct: assessed in human liver microsomes (procured from GIBCO Invitrogen); tissue GIBCO Invitrogen; host or cells: human liver microsomes
The data set can be described thus: CYP inhibition in human liver microsomes (CYP2C19). Format: in vitro ADME. The settings on record: hydroxylation of omeprazole (CYP2C19 per method), read-out: predicted IC50, hydroxylation of omeprazole. On the procedure: CYP inhibition potential of compound was assessed in human liver microsomes (procured from GIBCO Invitrogen) against CYP3A4, 2D6, 2C9, 2C19 and 1A2 in the following sequential steps. Standard reaction mixture (final volume 300 μL) contained […] potassium phosphate buffer (pH 7.4), protein (0.1, 0.25, 0.5, 0.5 and 0.5 mg/mL concentration for CYP3A4, 2D6, 2C9 2C19 and 1A2 respectively) and compound (at eight different concentration levels ranging from […], added as 0.9 μL DMSO solution with a final DMSO concentration of […]). The mixtures were pre-incubated at 37±1° C. for 5 min. The reaction (in duplicate) was initiated by addition of 30 μL of NADPH (10 mM). Reaction was terminated at 10 min by adding 300 μL of acetonitrile. The activity of liver microsomes was confirmed with positive controls i.e., monitoring the hydroxylation of midazolam for CYP 3A4, hydroxylation of bufuralol for CYP 2D6, hydroxylation of diclofenac for CYP 2C9, hydroxylation of omeprazole for CYP2C19 and O-Deethylation for CYP 1A2. The reaction mixtures (obtained from the above studies) were extracted, processed and analyzed by LC-MS [Shimadzu SIL LC series (Kyoto, Japan) was coupled to an API-4000 Mass Spectrometer (MDS Sciex, Toronto, Canada)].

Data set [3] has as its system plasma proteins. As to the kind of experiment: Plasma protein binding by equilibrium dialysis. It counts as in vitro ADME, mouse. The settings on record: plasma, equilibrium dialysis. On the procedure: (§3) To evaluate the ability of compound to bind the plasma proteins, the most common approach of plasma protein binding using equilibrium dialysis was used. Compound was tested at a final concentration of 3 μM in mouse, rat, human or dog plasma. An aliquot of 150 μL plasma containing compound was added in first half (plasma side) of the well of 96-well micro-equilibrium dialysis device. An aliquot of 150 μL of 100 mM sodium phosphate buffer pH 7.4 was added in the second half (buffer side) of the well of 96-well HT equilibrium dialysis device. The plate containing plasma and buffer was equilibrated at 37±1° C. for 4.5 h, with constant shaking at 120 rpm on an orbital shaker. Samples were collected from respective halves after the completion of incubation time. The proteins were precipitated using organic solvents. The samples were subjected to centrifugation and the supernatants were analyzed analysis on LC-MS/MS.
(Equilibrium dialysis compares concentrations on both sides of a semipermeable membrane.)

The nature of data set [4]: Plasma protein binding by equilibrium dialysis. The settings on record: pH 7.4; mouse plasma, 3 μM, equilibrium dialysis 4.5 h. It counts as in vitro ADME, mouse. On the procedure: as §3
Data set [5] is described as follows: Metabolic stability in liver microsomes (mouse). It counts as in vitro ADME. The conditions noted are these: mice liver microsomes 0.5 mg/mL, compound 1 μM, NADPH, up to 30 min. As for the experimental part:
as §1, §2

For data set [6], the system named is Caco-2 human intestinal epithelial cells. The data set can be described thus: Caco-2 permeability. It counts as in vitro ADME. The settings on record: 5 μM, bi-directional, 60 min. As for the experimental part:
Procedure: Caco-2 human intestinal epithelial cells were plated in 24-Transwell® dual chamber plates (Millipore, Billerica, Mass., USA) (cell density of 80,000 cells/cm^2 on day-1). The permeability studies were conducted with the monolayers cultured for 21 to 22 days in culture. The integrity of each Caco-2 cell monolayer was certified by trans epithelial electrical resistance (TEER) test (pre-experiment) and by determining the permeability of reference compound i.e., Lucifer yellow. Caco-2 cell monolayers with TEER values greater than 500 Ωcm^2 were considered for experimentation. Digoxin (5 μM) was used as a positive control for P-gp substrate. The concentrations of compound used in the assay was 5 μM. HBSS Buffer was used as the medium for the transport assay and the final concentration of DMSO in spiking solution was 0.05%. The bi-directional permeability study was initiated by adding an appropriate volume of HBSS buffer containing compound to respective apical and basolateral chambers (n=3). An aliquot of sample (100 μL) was taken from both chambers at 0 and 60 min of the incubation period and to this equal volume of acetonitrile was added, mixed gently and centrifuged at 4000 rpm for 10 min. An aliquot of 100 μL was subsequently transferred to the auto-sampler and 10 μL was injected for analysis on LC-MS/MS.
A general note: Caco-2 cells form a polarised layer with tight junctions and transporters.

A value given as a limit tells only on which side of the number the result lay.

T1 sequence (P33261 whole entry): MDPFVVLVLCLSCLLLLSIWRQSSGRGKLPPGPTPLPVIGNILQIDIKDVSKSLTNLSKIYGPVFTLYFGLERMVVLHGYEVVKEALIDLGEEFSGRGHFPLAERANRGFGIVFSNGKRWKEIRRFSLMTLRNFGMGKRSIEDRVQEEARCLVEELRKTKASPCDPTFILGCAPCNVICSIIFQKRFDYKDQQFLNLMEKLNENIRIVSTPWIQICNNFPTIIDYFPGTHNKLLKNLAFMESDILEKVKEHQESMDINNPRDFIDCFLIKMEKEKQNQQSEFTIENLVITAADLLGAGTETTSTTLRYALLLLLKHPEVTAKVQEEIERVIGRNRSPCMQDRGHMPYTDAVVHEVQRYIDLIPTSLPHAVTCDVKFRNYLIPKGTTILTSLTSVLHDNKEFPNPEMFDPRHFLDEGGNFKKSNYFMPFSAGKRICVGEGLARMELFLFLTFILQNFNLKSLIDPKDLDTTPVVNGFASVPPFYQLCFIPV

Take `COc1nc(OCc2cccc(-c3ccccc3)c2C)nc(OC)c1CN1CCCC[C@H]1C(=O)O` [Compound 45, (S)-1-((4,6-dimethoxy-2-((2-methyl-[1,1′-biphenyl]-3-yl)methoxy)pyrimidin-5-yl)methyl)piperidine-2-carboxylic acid]: the “Metabolic stability in liver microsomes” value in data set [1] and in data set [5] was over 80% throughout. For the same compound, the 50% inhibitory concentration (IC50) in data set [2] is over 10 µM. Moreover, the “stability and recovery in plasma” value in data set [3] is recorded as “good”. The unbound share (fraction unbound) at 4.5 h, 3 μM in data set [4] stood at 0.039. For the same compound, in data set [6], the Caco-2 efflux entry was “high efflux”. The Caco-2 permeability entry in data set [6] was “medium permeable”.

Broadly, the IC50 is the point on the concentration scale where inhibition reaches its midpoint. In general, fraction unbound refers to free concentration divided by total concentration. Read a high fraction unbound as weak binding.

(Values after patent US11629135B2 (JUBILANT PRODEL LLC, priority 2017, dated 2023).)
